Source: PMC6352943, “Novel pyrazolo[3,4-d]pyrimidines: design, synthesis, anticancer activity, dual EGFR/ErbB2 receptor tyrosine kinases inhibitory activity, effects on cell cycle profile and caspase-3-mediated apoptosis” (Journal of Enzyme Inhibition and Medicinal Chemistry, 2019)

What was measured:
T-47D = test: NCI 60 cell line single dose screen (SRB); type: cell-based; conditions: Homo sapiens, T47D; T-47D (breast cancer), single dose 10^−5 M, 48 h; read-out: Growth inhibition percentage
In short: (§1)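 Cells were plated and grown 24 h at 37 °C, 5% CO2 before compound addition from DMSO stock, then exposed 48 h. Adherent cells were fixed with cold TCA (final 10%) and suspension cells with 16% TCA. SRB-stained protein was read at 515 nm and percent growth was calculated against time-zero and untreated plates.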

SK-MEL-2 = test: NCI 60 cell line single dose screen (SRB); type: cell-based; conditions: Homo sapiens; SK-MEL-2 (melanoma), single dose 10^−5 M, 48 h; read-out: Growth inhibition percentage
In short: as §1

MCF7 = test: NCI 60 cell line single dose screen (SRB); type: cell-based; conditions: Homo sapiens; MCF7 (breast cancer), single dose 10^−5 M, 48 h; read-out: Growth inhibition percentage
In short: as §1

KM12 = test: NCI 60 cell line single dose screen (SRB); type: cell-based; conditions: Homo sapiens; KM12 (colon cancer), single dose 10^−5 M, 48 h; read-out: Growth inhibition percentage
In short: as §1

COLO 205 = test: NCI 60 cell line single dose screen (SRB); type: cell-based; conditions: Homo sapiens, COLO 205, 48 h; read-out: Growth inhibition percentage
In short: as §1

A549/ATCC = test: NCI 60 cell line single dose screen (SRB); type: cell-based; conditions: Homo sapiens; A549/ATCC (non-small cell lung cancer), single dose 10^−5 M, 48 h; read-out: Growth inhibition percentage
In short: as §1

OVCAR-5 = test: NCI 60 cell line single dose screen (SRB); type: cell-based; conditions: Homo sapiens; OVCAR-5 (ovarian cancer), single dose 10^−5 M, 48 h; read-out: Growth inhibition percentage
In short: as §1

PC-3 = test: NCI 60 cell line single dose screen (SRB); type: cell-based; conditions: Homo sapiens; PC-3 (prostate cancer), single dose 10^−5 M, 48 h; read-out: Growth inhibition percentage
In short: as §1

NCI-H460 = test: NCI 60 cell line single dose screen (SRB); type: cell-based; conditions: Homo sapiens; NCI-H460 (non-small cell lung cancer), single dose 10^−5 M, 48 h; read-out: Growth inhibition percentage
In short: as §1

EKVX = test: NCI 60 cell line single dose screen (SRB); type: cell-based; conditions: Homo sapiens; EKVX (non-small cell lung cancer), single dose 10^−5 M, 48 h; read-out: Growth inhibition percentage
In short: as §1

UO-31 = test: NCI 60 cell line single dose screen (SRB); type: cell-based; conditions: Homo sapiens; UO-31 (renal cancer), single dose 10^−5 M, 48 h; read-out: Growth inhibition percentage
In short: as §1

RPMI-8226 = test: NCI 60 cell line single dose screen (SRB); type: cell-based; conditions: Homo sapiens; RPMI-8226 (leukemia), single dose 10^−5 M, 48 h; read-out: Growth inhibition percentage
In short: as §1

UACC-257 = test: NCI 60 cell line single dose screen (SRB); type: cell-based; conditions: Homo sapiens; UACC-257 (melanoma), single dose 10^−5 M, 48 h; read-out: Growth inhibition percentage
In short: as §1

MDA-MB-231/ATCC = test: NCI 60 cell line single dose screen (SRB); type: cell-based; conditions: Homo sapiens; MDA-MB-231/ATCC (breast cancer), single dose 10^−5 M, 48 h; read-out: Growth inhibition percentage
In short: as §1

NCI-H522 = test: NCI 60 cell line single dose screen (SRB); type: cell-based; conditions: Homo sapiens; NCI-H522 (non-small cell lung cancer), single dose 10^−5 M, 48 h; read-out: Growth inhibition percentage
In short: as §1

SK-MEL-28 = test: NCI 60 cell line single dose screen (SRB); type: cell-based; conditions: Homo sapiens; SK-MEL-28 (melanoma), single dose 10^−5 M, 48 h; read-out: Growth inhibition percentage
In short: as §1

COc1cc(C=NNc2ncnc3c2c(C)nn3-c2ccc(F)cc2)cc(OC)c1OC [Compound 10c, 1–(4-Fluorophenyl)-3-methyl-4–(2-(3,4,5-trimethoxybenzylidene)-hydrazinyl)-1H-pyrazolo[3,4-d]pyrimidine]
inhibition at 10 µM (T-47D): 16.8%
inhibition at 10 µM (SK-MEL-2): -1.74%
inhibition at 10 µM (MCF7): 1.96%
inhibition at 10 µM (KM12): 5.82%
inhibition at 10 µM (COLO 205): -6.78%
inhibition at 10 µM (A549/ATCC): -0.67%
inhibition at 10 µM (OVCAR-5): -11.4%
inhibition at 10 µM (PC-3): 16.5%
inhibition at 10 µM (NCI-H460): -3.23%
inhibition at 10 µM (EKVX): 10%
inhibition at 10 µM (UO-31): 31.1%
inhibition at 10 µM (RPMI-8226): 1.29%
inhibition at 10 µM (UACC-257): 0.35%
inhibition at 10 µM (MDA-MB-231/ATCC): 16.5%
inhibition at 10 µM (NCI-H522): 7.26%
inhibition at 10 µM (SK-MEL-28): 1.3%
melting point: 222 to 224 °C
